SMILES strings stand for the structures.

The IC50 is the concentration that gives 50% inhibition. A low value points to inhibition by little substance.

The test deals with HDAC2 (Homo sapiens, UniProt Q92769). Description: HDAC2 fluorescence inhibition assay (tBoc-Lys(Ac)-AMC).
Chain of HDAC2 (Q92769 whole entry): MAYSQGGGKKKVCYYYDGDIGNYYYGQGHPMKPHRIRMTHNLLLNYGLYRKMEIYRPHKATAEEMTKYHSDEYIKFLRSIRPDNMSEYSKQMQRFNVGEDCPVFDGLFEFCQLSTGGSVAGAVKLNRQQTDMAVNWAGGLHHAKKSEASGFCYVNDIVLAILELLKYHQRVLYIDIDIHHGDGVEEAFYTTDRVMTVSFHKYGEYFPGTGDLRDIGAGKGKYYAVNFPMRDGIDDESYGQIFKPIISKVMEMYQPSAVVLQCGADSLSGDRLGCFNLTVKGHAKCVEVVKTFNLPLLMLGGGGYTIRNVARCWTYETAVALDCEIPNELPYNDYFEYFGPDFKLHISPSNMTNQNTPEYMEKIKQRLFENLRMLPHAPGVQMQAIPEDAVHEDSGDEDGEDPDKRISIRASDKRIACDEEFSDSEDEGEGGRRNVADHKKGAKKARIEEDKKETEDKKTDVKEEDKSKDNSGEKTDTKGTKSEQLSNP
The molecule `Nc1ccccc1NC(=O)c1ccc(CSc2nc3ccccc3[nH]2)cc1` [Example 3, 4-((1H-benzo[d]imidazol-2-ylthio)methyl)-N-(2-aminophenyl)benzamide] returned an IC50 of 100 to 1000 nM.

Turning to `Nc1ccccc1NC(=O)c1ccc(COc2nc3cccnc3[nH]2)s1` [Example 12, 5-((3H-imidazo[4,5-b]pyridin-2-yloxy)methyl)-N-(2-aminophenyl)thiophene-2-carboxamide], the half-maximal inhibitory concentration (IC50) was greater than 1000 nM.

`Nc1ccccc1NC(=O)c1ccc(CSc2nc3cccnc3[nH]2)cc1` [Example 9, 4-((3H-imidazo[4,5-b]pyridin-2-ylthio)methyl)-N-(2-aminophenyl)benzamide]: the IC50 is less than 100 nM.

For the molecule `Nc1ccccc1NC(=O)c1ccc(CS(=O)(=O)c2nc3ccccc3[nH]2)cc1` [Example 6, 4-((1H-benzo[d]imidazol-2-ylsulfonyl)methyl)-N-(2-aminophenyl)benzamide], the IC50 is 100 to 1000 nM.

Turning to `Nc1ccccc1NC(=O)c1ccc(CSc2nc3ccccc3n2C2CCCCC2)cc1` [Example 8, N-(2-aminophenyl)-4-((1-cyclohexyl-1H-benzo[d]imidazol-2-ylthio)methyl)benzamide], the IC50 lay in the range of 100 to 1000 nM.

In turn, `Nc1ccccc1NC(=O)c1ccc(CNc2nc3ccccc3[nH]2)cc1` [Example 2, 4-((1H-benzo[d]imidazol-2-ylamino)methyl)-N-(2-aminophenyl)benzamide] came in with a 50% inhibitory concentration (IC50) of less than 100 nM.

`Nc1ccccc1NC(=O)c1ccc(CSc2nc3ccncc3[nH]2)cc1` [Example 10, 4-((3H-imidazo[4,5-c]pyridin-2-ylthio)methyl)-N-(2-aminophenyl)benzamide] yielded a half-inhibitory concentration (IC50) of less than 100 nM.

For `Nc1ccccc1NC(=O)c1ccc(COc2nc3cccnc3[nH]2)cc1` [Example 4, 4-((3H-imidazo[4,5-b]pyridin-2-yloxy)methyl)-N-(2-aminophenyl)benzamide], the 50% inhibitory concentration (IC50) lay within 100 to 1000 nM.

`Nc1ccccc1NC(=O)c1ccc(C[S+]([O-])c2nc3ccccc3[nH]2)cc1` (centres unmarked) [Example 5, 4-((1H-benzo[d]imidazol-2-ylsulfinyl)methyl)-N-(2-aminophenyl)benzamide] showed an IC50 of 100 to 1000 nM.

As for `CC(C)n1c(SCc2ccc(C(=O)Nc3ccccc3N)cc2)nc2ccccc21` [Example 7, N-(2-aminophenyl)-4-((1-isopropyl-1H-benzo[d]imidazol-2-ylthio)methyl)benzamide], the 50% inhibitory concentration (IC50) was less than 100 nM.

Molecule `Nc1ccccc1NC(=O)c1ccc(COc2nc3ccncc3[nH]2)cc1` [Example 11, 4-((3H-imidazo[4,5-c]pyridin-2-yloxy)methyl)-N-(2-aminophenyl)benzamide] had an IC50 of 100 to 1000 nM.

The record behind these values is patent US20070173527A1, “HISTONE DEACETYLASE INHIBITORS” (priority 2006, published 2007).
